Measured values from BindingDB's records for patent US20240190893 (Janssen Pharmaceutica, 2024).
pKi: −log10 of the molar value. Several values for one entry are separate records, joined by “and”; a condition that tells them apart may be missing. Equal values may be shown once.

Target: Induced myeloid leukemia cell differentiation protein Mcl-1 (Homo sapiens, UniProt Q07820)
Assay: Terbium labeled Myeloid Cell Leukemia 1 (Mcl-1) homogeneous time-resolved fluorescence (HTRF) binding assay
Description: This assay evaluated inhibition of the BH3 domain: Mcl-1 interaction by measuring the displacement of Cy5-labeled BIM BH3 peptide (H2N (C/Cy5Mal) WIAQELRRIGDEFN-OH) in the HTRF assay format.

Induced myeloid leukemia cell differentiation protein Mcl-1, sequence (Q07820 whole entry): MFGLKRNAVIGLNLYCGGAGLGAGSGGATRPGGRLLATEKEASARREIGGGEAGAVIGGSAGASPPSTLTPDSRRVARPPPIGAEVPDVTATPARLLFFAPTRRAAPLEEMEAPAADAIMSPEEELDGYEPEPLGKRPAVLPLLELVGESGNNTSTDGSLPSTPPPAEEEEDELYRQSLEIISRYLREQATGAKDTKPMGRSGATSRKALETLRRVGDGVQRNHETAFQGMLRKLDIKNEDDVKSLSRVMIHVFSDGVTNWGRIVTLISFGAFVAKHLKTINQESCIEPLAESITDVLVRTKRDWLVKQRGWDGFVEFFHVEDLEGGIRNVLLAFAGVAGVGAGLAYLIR

pKi: 8.84 and 9.60
Structure (SMILES): Cc1nn(C)c(C)c1-c1c(Cl)ccc2c3c(C(=O)O)n(c12)CCCSCc1cc(n(C)n1)CSc1cc(c2ccccc2c1)OCCC3 [US20240190893, Compound 19]
